{"source": "paper PMC8853707", "about": "“Synthesis and enzyme-based evaluation of analogues L-tyrosine thiol carboxylic acid inhibitor of metallo-β-lactamase IMP-1” (Journal of Enzyme Inhibition and Medicinal Chemistry, 2019)", "data": [{"target": "T1, IMP-1 (Serratia marcescens, UniProt P52699)", "T1 sequence (P52699 22-246 limits assumed)": "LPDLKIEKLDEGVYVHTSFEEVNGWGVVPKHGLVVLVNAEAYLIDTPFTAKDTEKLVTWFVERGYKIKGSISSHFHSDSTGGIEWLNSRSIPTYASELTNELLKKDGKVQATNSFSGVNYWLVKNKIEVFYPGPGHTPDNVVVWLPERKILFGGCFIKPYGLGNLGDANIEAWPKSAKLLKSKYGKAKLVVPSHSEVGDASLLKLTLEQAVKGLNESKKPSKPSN", "test": "not given", "settings": "read-out: Kic; against IMP-1; reference inhibitor; cited from earlier work", "units": {"Ki": "nM"}, "values": [{"smiles": "O=C(CS)N[C@@H](Cc1ccc(OCc2ccccc2)cc1)C(=O)O", "note": "[Compound 1, L-benzyl tyrosine thiol carboxylic acid]", "Ki": "86 ± 24"}]}, {"target": "T1, IMP-1", "test": "Kinetic inhibition assay of IMP-1 (hydrolysis of benzyl penicillin followed at 235 nm), Kic", "type": "biochemical", "settings": "not given", "description": "The IMP-1 enzyme, lacking the first 21 signal peptide amino acid residues, was expressed and purified using the protocol of Vella et al.[45–46] The reported methods for monitoring of MBLs activities are based on the consequences of the hydrolysis of β-lactam ring of substrates. The MBL-catalysed reaction is usually monitored by following the changing absorbance at the wavelength where the difference in the molar absorptivity, ΔɛM, is maximal or near the maximum value. There are a few β-lactam substrates which can be used for in vitro assays of MBLs inhibitors. CENTA,[47] a type of cephalosporin, and Penicillin G (benzyl penicillin)[48] are well-known substrates due to commercial availability, inexpensive prices and comfort of their syntheses. For this study, Penicillin G was used as CENTA was not compatible with the inhibitor type as reported by Arjomandi et al.[1] The monitoring of hydrolysis of benzyl penicillin by the synthesized compounds was carried out in UV plate at wavelength 235 nm as no chromosphere is released (Figure 7). The concentration of benzyl penicillin is reduced upon hydrolysis by IMP-1 causing a decrease in the absorption at 235 nm over the time, thereby allowing a way to monitor the reaction. Inhibitors of metallo-β-lactamase decrease the rate of hydrolysis of benzyl penicillin, thus, providing a way of measuring the activities of inhibitors against MBLs.\nBenzyl penicillin solutions were prepared fresh at the time of assay as their activities will change and stop after 24 h even with keeping in the fridge.[1] In the first step, the inhibitory activities (IC50 values) of the inhibitors 2a–k were measured by a screening assay which evaluated the residual activity of the enzyme. […] Further kinetic analyses then allowed the determination of Kic values of these compounds based on the procedure reported by Arjomandi et al.[1] Inhibition assays for IMP-1 were performed in 96 well 400 µL UV multi-titre plates using a UV multi-plate spectrophotometer. The hydrolysis rate of benzyl penicillin (penicillin G sodium salt) was measured at λ = 235 nm.[49] The initial screening assay (IC50 values) was performed in duplicate, with benzyl penicillin as the substrate and HEPESX (50 mM HEPES, 0.1 M NaCl, […], pH 7.0) as the buffer at 25 °C. The final concentrations of enzyme and benzyl penicillin were 10 nM and 500 µM, respectively. Bovine serum albumin (a final concentration of 20 µg/mL) was added to the enzyme for stability. For each well, 196 µL substrate and 4 µL inhibitor were added followed by the addition of 200 µL of enzyme. The rate of the hydrolysis of substrate was recorded for 5 min. To measure Kic value, four solutions with different concentrations for each molecule were prepared and then were assayed based on the aforementioned procedure while the concentrations of substrate in wells were 200, 400, 600, 800 and 1000 µM. The raw kinetic data were analysed by non-linear regression using the Win Curve Fit program (Kevin Raner Software) and the Kic value was calculated for each molecule.[1] The Kic values of molecules 2a–k are in the range of 1.04–4.77 µM which was unexpected based on the computational modelling results. Although the introduced compounds are still potent enzyme-based inhibitors, they are nearly at least ten times less as potent as the lead inhibitor is. Due to the less inhibition activities of the synthesized molecules in compare to the reference compound, their cell-based assays have not carried out.", "units": {"Ki": "nM"}, "values": [{"smiles": "O=C(CS)N[C@@H](Cc1ccc(OCc2ccccc2Cl)cc1)C(=O)O", "note": "[Compound 2d, (S)-3-(4-((2-Chlorobenzyl)oxy)phenyl)-2-(2-mercaptoacetamido)propanoic acid]", "Ki": "1810 ± 900"}, {"smiles": "O=C(CS)N[C@@H](Cc1ccc(OCc2ccccc2[N+](=O)[O-])cc1)C(=O)O", "note": "[Compound 2g, (S)-2-(2-Mercaptoacetamido)-3-(4-((2-nitrobenzyl)oxy)phenyl)propanoic acid]", "Ki": "1650 ± 340"}, {"smiles": "O=C(CS)N[C@@H](Cc1ccc(OCc2ccc(Br)cc2)cc1)C(=O)O", "note": "[Compound 2k, (S)-3-(4-((4-Bromobenzyl)oxy)phenyl)-2-(2-mercaptoacetamido)propanoic acid]", "Ki": "3300 ± 900"}, {"smiles": "Cc1ccc(COc2ccc(C[C@H](NC(=O)CS)C(=O)O)cc2)cc1", "note": "[Compound 2c, (S)-2-(2-Mercaptoacetamido)-3-(4-((4-methylbenzyl)oxy)phenyl)propanoic acid]", "Ki": "1070 ± 210"}, {"smiles": "O=C(CS)N[C@@H](Cc1ccc(OCc2cccc([N+](=O)[O-])c2)cc1)C(=O)O", "note": "[Compound 2h, (S)-2-(2-Mercaptoacetamido)-3-(4-((3-nitrobenzyl)oxy)phenyl)propanoic acid]", "Ki": "2860 ± 1230"}, {"smiles": "Cc1cccc(COc2ccc(C[C@H](NC(=O)CS)C(=O)O)cc2)c1", "note": "[Compound 2b, (S)-2-(2-Mercaptoacetamido)-3-(4-((3-methylbenzyl)oxy)phenyl)propanoic acid]", "Ki": "1150 ± 490"}, {"smiles": "O=C(CS)N[C@@H](Cc1ccc(OCc2ccc(Cl)cc2)cc1)C(=O)O", "note": "[Compound 2f, (S)-3-(4-((4-Chlorobenzyl)oxy)phenyl)-2-(2-mercaptoacetamido)propanoic acid]", "Ki": "3200 ± 590"}, {"smiles": "O=C(CS)N[C@@H](Cc1ccc(OCc2ccc([N+](=O)[O-])cc2)cc1)C(=O)O", "note": "[Compound 2i, (S)-2-(2-Mercaptoacetamido)-3-(4-((4-nitrobenzyl)oxy)phenyl)propanoic acid]", "Ki": "3200 ± 620"}, {"smiles": "Cc1ccccc1COc1ccc(C[C@H](NC(=O)CS)C(=O)O)cc1", "note": "[Compound 2a, (S)-2-(2-Mercaptoacetamido)-3-(4-((2-methylbenzyl)oxy)phenyl)propanoic acid]", "Ki": "1040 ± 280"}, {"smiles": "O=C(CS)N[C@@H](Cc1ccc(OCc2cccc(Br)c2)cc1)C(=O)O", "note": "[Compound 2j, (S)-3-(4-((3-Bromobenzyl)oxy)phenyl)-2-(2-mercaptoacetamido)propanoic acid]", "Ki": "3140 ± 710"}, {"smiles": "O=C(CS)N[C@@H](Cc1ccc(OCc2cccc(Cl)c2)cc1)C(=O)O", "note": "[Compound 2e, (S)-3-(4-((3-chlorobenzyl)oxy)phenyl)-2–(2-mercaptoacetamido)propanoic acid]", "Ki": "4770 ± 2810"}]}]}
